Test results reported in US10071105B2, “Formulations of deoxycholic acid and salts thereof” (Kythera Biopharmaceuticals, Inc., priority 2009, dated 2018).

Assay: Reverse phase HPLC, degradation products (purity), stability study
Format: physicochemical
Conditions: storage two months (eight weeks) at 4° C., 25° C. and 37° C.
Method: Reverse phase HPLC was used along with visual observations which were conducted at each time point to monitor any precipitation or cloudiness.
The formulations were incubated at 4° C., 25° C. and 37° C. and analyzed for a) degradation products, b) pH stability and c) formulation clarity.
Reverse phase HPLC was used to visualize degradation products.

C[C@H](CCC(=O)[O-])[C@H]1CCC2C3CC[C@@H]4C[C@H](O)CC[C@]4(C)C3C[C@H](O)[C@@]21C.[Na+] (stereo partly drawn) [sodium deoxycholate, sodium (4R)-4-((3R,5R,10S,12S,13R,17R)-3,12-dihydroxy-10,13-dimethylhexadecahydro-1H-cyclopenta[a]phenanthren-17-yl)pentanoate]
chemical degradation by reverse phase HPLC: no degradation
